This is an account of results in patent US20240343747A1, “Heteroaryl compounds as inhibitors of TYK2, composition and application thereof” (Accro Bioscience (HK) Limited, priority 2021, published 2024).

Values after ≈ are worked out from the molar mass of the structure shown.

A short description of data set [1]: Pharmacokinetic evaluation in rats. It is filed as in vivo, rat. The settings on record: for plasma exposure and bioavailability in rat (in words): conclusion from Table 10; for AUC / Vd / clearance / half-life / Cmax / Tmax: male, plasma; for AUC / Vd / clearance / half-life / Cmax / Tmax / F: rat. The method, then:
The rat pharmacokinetic characteristics of compounds were tested by standard protocols. The candidate compounds were made into clear solution for single intravenous injection (i.v.) and suspension for oral administration (p.o.). Intravenous vehicle is 5% DMSO+10% Solutol+85% Saline. Of which adjusts pH to 3 for B37. While oral vehicle is 0.5% CMCNa for B2 and B22, 5% DMSO+10% Solutol+85% Saline, pH˜3 for B37, 5% DMSO+10% Solutol+85% Saline for B41. The experiment used 6 male rats and 3 rats for intravenous at a dose of 2 mg/kg. Plasma samples were collected at 0 h (before dosing) and 0.083 h, 0.25 h, 0.5 h, 1 h, 2 h, 4 h, 8 h, 24 h after dosing. 3 rats were orally administrated at a dose of 10 mg/kg. Plasma samples were collected at 0 h (before dosing) and 0.25 h, 0.5 h, 1 h, 2 h, 4 h, 6 h, 8 h, 24 h after dosing.
Blood samples were placed in tubes containing K2-EDTA and stored on ice until centrifuged. The blood samples were centrifuged at 6800 g for 6 minutes at 2-8° C. within 1 h after collected, and stored frozen at approximately −80° C.
The analytical results were confirmed using quality control samples for intra-assay variation. The accuracy of >66.7% of the quality control samples and 50% of all QC samples at each concentration level were between 80-120% of the known value(s).
Standard set of parameters including area under the curve (AUC(0-t) and AUC(0-∞)), elimination half-live (T1/2), maximum plasma concentration (Cmax), time to reach maximum plasma concentration (Tmax) were calculated using noncompartmental analysis modules in FDA certified pharmacokinetic program Phoenix WinNonlin 7.0 (Pharsight, USA) by the Study Director.

Another data set is described as follows: Kinetic solubility test. The settings on record: for kinetic solubility (in words): conclusion from Table 6; for solubility kinetic at 2 h: phosphate buffer, aqueous buffer, kinetic from dmso stock, 50 mM PB pH 7.4. In kind it is physicochemical. The method, then: • 1. 10 μL of test and control compounds (10 mM) in DMSO was added into lower chambers of Whatman mini-uniprep vials, respectively. • 2. Added 490 μL of 50 mM PB (pH 7.4) into lower chambers of the Whatman mini-uniprep vials, respectively. • 3. […] Shook the mini-uniprep vials on a Barnstead shaker for 2 hours at room temperature at the speed of 800 rpm. • 5. Centrifuged 20 minutes (e.g. 4000 rpm) • 6. Compressed mini-unipreps to prepare the filtrates for injection into UPLC system to calculate the concentration with standard curve.

A further data set has as its target TYK2 (Mus musculus (Mouse), UniProt Q9R117). Description: Luciferase assay in L929 ISRE cells stimulated with IFN-α. In kind it is cell-based. The settings on record: IFN-α 100 ng/mL; for inhibition at 0.1 µM: 100 nM, read-out: Inhibitory activity % (100 nM); for inhibition at 1 µM: 1000 nM, read-out: Inhibitory activity % (1000 nM); for inhibition at 0.05 µM: 50 nM, read-out: Inhibitory activity % (50 nM); for inhibition at 0.2 µM: 200 nM, read-out: Inhibitory activity % (200 nM). The method, then: • 1. L929 ISRE cells (5000 cells/well) were seeded on 96-well plates and incubated overnight at room temperature; • 2. The cells were pretreated by adding different concentrations (10 nM, 50 nM, 100 nM, 200 nM or 1000 nM) of the test compounds for 2 hours; • 3. Added IFN-α (100 ng/mL) to stimulate cells for 6 hours; • 4. Removed the upper medium, add PBS (100 μL) and washed, then removed PBS; • 5. Added PLB lysis solution (50 μL) to each well, shook the well for 15 minutes; • 6. Transferred PLB lysis solution (30 μL) to a new 96-well whiteboard, added LAR II reagent (LAR II), then quickly read the […]; • 7. Added Stop & Glo reagent (30 μL), then read the 450 nm OD value using the plate washer. • 8. The final results in Table 3 were the OD value in step 6/OD value in step 7.

Data set [2] can be described thus: Plasma protein binding test, dog. In kind it is in vitro ADME. The method, then: • 1. Test compound and control compound were dissolved in dimethyl sulfoxide (DMSO) to achieve 10 mM stock solutions. DMSO working solutions were prepared at 400 μM. To prepare the loading matrix, compound working solutions (5 μL) were added in a 1:200 ratio to blank matrix (995 μL), and mixed thoroughly. • 2. To prepare the time zero (TO) samples to be used for recovery determination, 50 μL aliquots of loading matrix were transferred in triplicate to the sample collection plate. The samples were immediately matched with opposite blank buffer to obtain a final volume of 100 μL of 1:1 matrix/dialysis buffer (v/v) in each well. 500 μL of stop solution were added to these TO samples. They were then stored at 2-8° C. pending further processes along with other post-dialysis samples. • 3. To load the dialysis device, an aliquot of 150 μL of the loading matrix was transferred to the donor side of each dialysis well in triplicate, and 150 μL of the dialysis buffer was loaded to the receiver side of the well. The dialysis plate was placed in a humidified incubator at 37° C. with 5% CO2 on a shaking platform that rotated slowly (about 100 rpm) for 4 hours • 4. At the end of the dialysis, aliquots of 50 μL of samples were taken from both the buffer side and the matrix side of the dialysis device. These samples were transferred into new 96-well plates. Each sample was mixed with an equal volume of opposite blank matrix (buffer or matrix) to reach a final volume of 100 μL of 1:1 matrix/dialysis buffer (v/v) in each well. All samples were further processed by adding 500 μL of stop solution containing internal standards. The mixture was vortexed and centrifuged at 4000 rpm for about 20 minutes. An aliquot of 100 μL of supernatant of all the samples was then removed for LC-MS/MS analysis • 5. The single blank samples were prepared by transferring […] of blank matrix to a 96 well plate and adding 50 μL of blank PBS buffer to each well. The blank plasma must match the species of plasma used in the plasma side of the well. […]
The % Unbound and % Bound were calculated using the following equations: […]

TYK2, sequence (Q9R117 whole entry): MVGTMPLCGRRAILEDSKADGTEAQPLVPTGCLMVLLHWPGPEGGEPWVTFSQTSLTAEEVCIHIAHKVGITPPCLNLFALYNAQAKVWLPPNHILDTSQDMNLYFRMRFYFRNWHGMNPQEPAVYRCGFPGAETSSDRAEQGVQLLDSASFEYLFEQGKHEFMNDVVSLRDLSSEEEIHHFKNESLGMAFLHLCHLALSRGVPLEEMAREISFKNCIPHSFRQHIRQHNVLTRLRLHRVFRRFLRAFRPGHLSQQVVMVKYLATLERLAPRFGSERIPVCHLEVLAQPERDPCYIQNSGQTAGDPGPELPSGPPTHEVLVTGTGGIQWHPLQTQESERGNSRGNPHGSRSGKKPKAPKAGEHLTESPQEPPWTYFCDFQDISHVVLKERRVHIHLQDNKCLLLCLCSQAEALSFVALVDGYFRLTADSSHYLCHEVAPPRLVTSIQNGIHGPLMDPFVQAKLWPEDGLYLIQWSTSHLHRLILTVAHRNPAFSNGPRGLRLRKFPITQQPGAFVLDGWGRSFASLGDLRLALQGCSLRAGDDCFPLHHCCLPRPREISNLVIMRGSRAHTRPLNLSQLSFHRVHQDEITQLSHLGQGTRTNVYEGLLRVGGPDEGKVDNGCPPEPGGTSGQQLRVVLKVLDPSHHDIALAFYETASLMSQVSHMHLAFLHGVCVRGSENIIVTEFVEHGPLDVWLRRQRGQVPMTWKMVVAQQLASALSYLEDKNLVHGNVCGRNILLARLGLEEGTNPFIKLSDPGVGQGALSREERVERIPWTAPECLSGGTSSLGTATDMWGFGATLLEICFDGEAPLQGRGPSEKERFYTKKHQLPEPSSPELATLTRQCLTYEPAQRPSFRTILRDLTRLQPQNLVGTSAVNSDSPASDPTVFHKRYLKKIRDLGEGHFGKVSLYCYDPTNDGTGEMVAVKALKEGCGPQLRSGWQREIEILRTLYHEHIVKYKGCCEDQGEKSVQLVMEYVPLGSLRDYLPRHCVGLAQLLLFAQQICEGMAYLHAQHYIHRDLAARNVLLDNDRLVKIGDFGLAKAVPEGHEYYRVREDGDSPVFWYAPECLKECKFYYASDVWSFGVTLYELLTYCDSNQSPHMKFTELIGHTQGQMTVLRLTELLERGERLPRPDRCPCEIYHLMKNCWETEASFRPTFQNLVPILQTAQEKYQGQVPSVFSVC

What is called AUC is the area under the concentration-time curve, a measure of exposure. A lower AUC goes with low exposure. By Vd is commonly meant the apparent volume that relates the amount in the body to the concentration in plasma or blood. Lower therefore signals confinement near the circulation. A word on the clearance: it is a measure of how efficiently the substance is removed, as volume per time. Low readings indicate a low capacity for elimination, high ones a high capacity for elimination. For orientation: half-life means the time needed for the level to fall by half in the phase considered. Read a high half-life as slow loss. One may read the Cmax as the peak of the concentration-time curve. As a reminder, the Tmax is the time from dosing to the highest level. By solubility (kinetic) is commonly meant solubility judged after dilution from a stock solution rather than from solid. By fraction unbound is commonly meant the share of the substance not bound to proteins or other matrix. Low values mean little free substance, high ones much free substance. Take `CCC(=O)c1cnc(NC(=O)C2CC2)cc1Nc1cccc(-c2cc(P(C)(C)=O)n(C)n2)c1OC` [Compound B2, N-(4-((3-(5-(dimethylphosphoryl)-1-methyl-1H-pyrazol-3-yl)-2-methoxyphenyl)amino)-5-propionylpyridin-2-yl)cyclopropanecarboxamide]: the “plasma exposure and bioavailability in rat (in words)” value (“plasma exposure and bioavailability” for short) in data set [1] was “good plasma exposure and bioavailability”. For the same molecule, in data set [1] (iv, i.v. 2 mg/kg), the AUC was 2430 ng·h/mL, the Vd was 1.5 L/kg, the clearance was 13.8 mL/min/kg and the half-life is 1.3 h. In addition, in data set [1] (po, p.o. 10 mg/kg), the area under the curve (AUC) was determined as 5900 ng·h/mL, the Cmax was determined as 2020 ng/mL and the Tmax came out at 0.67 h. For the same molecule, the F in data set [1] (p.o. 10 mg/kg) worked out at 49%. In “Kinetic solubility test”, the “kinetic solubility (in words)” value is listed as “good” and the solubility (kinetic) at 2 h is 52.4 µM (≈ 26 µg/mL). The inhibition at 0.01 µM on TYK2 (10 nM, read-out: Inhibitory activity % (10 nM)) came out at 45%. Further, on TYK2, the inhibition at 0.1 µM was determined as 58% and the inhibition at 1 µM came to 94%. Besides, the fraction unbound at 4 h, 2 μM in data set [2] was 0.119.

`[2H]C([2H])([2H])n1nc(-c2cccc(Nc3cc(NC(=O)C4CC4)ncc3C(=O)CC)c2OC)cc1P(C)(C)=O` [Compound B22]: in data set [1] (iv, i.v. 2 mg/kg), the AUC was determined as 2670 ng·h/mL, the Vd was 1.4 L/kg, the clearance is 12.7 mL/min/kg and the half-life is 1.3 h. Also, in data set [1] (po, p.o. 10 mg/kg), the AUC was found to be 2280 ng·h/mL, the Cmax worked out at 694 ng/mL and the Tmax was 1.83 h. In data set [1] (p.o. 10 mg/kg), this molecule displayed an F of 17%. In addition, in “Kinetic solubility test”, the “kinetic solubility (in words)” value is given as “good” and the solubility (kinetic) at 2 h is 91.9 µM (≈ 45.8 µg/mL). Also, on TYK2, the inhibition at 0.1 µM is 43% and the inhibition at 1 µM was determined as 83%. In addition, the fraction unbound at 4 h, 2 μM in data set [2] is 0.156.

In the case of `CCC(=O)c1cnc(NC(=O)C2CC2)cc1Nc1cccc(-c2cc(P(=O)(C3CC3)C3CC3)n(C)n2)c1OC` [Compound B37, N-(4-((3-(5-(dicyclopropylphosphoryl)-1-methyl-1H-pyrazol-3-yl)-2-methoxyphenyl)amino)-5-propionylpyridin-2-yl)cyclopropanecarboxamide], the “plasma exposure and bioavailability” value in data set [1] is “good plasma exposure and bioavailability”. Besides, in data set [1] (iv, i.v. 2 mg/kg), the AUC worked out at 3090 ng·h/mL, the Vd was 0.9 L/kg, the clearance turned out to be 10.9 mL/min/kg and the half-life was 0.96 h. Moreover, in data set [1] (po, p.o. 10 mg/kg), the AUC was determined as 9420 ng·h/mL, the Cmax was determined as 1890 ng/mL and the Tmax was 2.05 h. Besides, the F in data set [1] (p.o. 10 mg/kg) stood at 61%. On TYK2, the inhibition at 0.05 µM worked out at 89%, the inhibition at 0.2 µM stood at 95% and the inhibition at 1 µM turned out to be 97%.

With `[2H]C([2H])([2H])NC(=O)c1nnc(NC(=O)C2CC2)cc1Nc1cccc(-c2cc(P(=O)(C3CC3)C3CC3)n(C)n2)c1OC` [Compound B41, 6-(cyclopropanecarboxamido)-4-((3-(5-(dicyclopropylphosphoryl)-1-methyl-1H-pyrazol-3-yl)-2-methoxyphenyl)amino)-N-(methyl-d3)pyridazine-3-carboxamide], the “plasma exposure and bioavailability” value in data set [1] is “good plasma exposure and bioavailability”. In data set [1] (iv, i.v. 2 mg/kg), this molecule gave an AUC of 2880 ng·h/mL, a Vd of 1 L/kg, a clearance of 11.6 mL/min/kg and a half-life of 1 h. Moreover, in data set [1] (po, p.o. 10 mg/kg), the AUC was 6900 ng·h/mL, the Cmax is 1800 ng/mL and the Tmax was determined as 2.83 h. This molecule also had a F in data set [1] (p.o. 10 mg/kg) of 48%. Besides, in “Kinetic solubility test”, the “kinetic solubility (in words)” value is “low to moderate” and the kinetic solubility at 2 h amounted to 11.3 µM (≈ 6.24 µg/mL). Further, on TYK2, the inhibition at 0.05 µM amounted to 86%, the inhibition at 0.2 µM turned out to be 92% and the inhibition at 1 µM worked out at 97%. The molecule also gave a fraction unbound at 4 h, 2 μM in data set [2] of 0.019.
